The source of these data is patent publication US12018016B2, “Aryl sulfonyl (hydroxy) piperidines as CCR6 inhibitors” (CHEMOCENTRYX, INC., priority 2021, dated 2024).

The assay deals with T1, human CCR6 (Homo sapiens, UniProt P51684).
T1 construct: expressed in transfected cells; host or cells: Ba/F3 cells (mouse pro-B line)
T1 sequence (P51684 1-374): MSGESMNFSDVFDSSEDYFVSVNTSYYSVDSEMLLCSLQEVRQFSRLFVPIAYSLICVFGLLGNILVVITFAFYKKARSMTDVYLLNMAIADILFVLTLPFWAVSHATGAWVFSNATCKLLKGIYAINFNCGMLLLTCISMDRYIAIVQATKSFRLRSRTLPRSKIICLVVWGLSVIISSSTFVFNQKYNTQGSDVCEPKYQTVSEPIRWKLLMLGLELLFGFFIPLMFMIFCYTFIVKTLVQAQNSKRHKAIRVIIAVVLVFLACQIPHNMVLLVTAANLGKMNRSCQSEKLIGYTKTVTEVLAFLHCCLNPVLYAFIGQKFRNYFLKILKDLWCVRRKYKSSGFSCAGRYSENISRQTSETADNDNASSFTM
Briefly: Migration assay (chemotaxis, ChemoTX). As to conditions: hCCR6-transfected Ba/F3 cells in human serum, migration to recombinant human CCL20 10 nM, 37° C. 45 minutes; read-out: Potency (IC50 value in the migration assay). In kind it is cell-based. The source says:
A chemotaxis assay can be used to determine the efficacy of potential receptor antagonists at blocking the migration mediated through chemokine receptors, such as CCR6. This assay is routinely performed using the ChemoTX® microchamber system with a 5-μm pore-sized polycarbonate membrane. Chemokine receptor-expressing cells are required for such an assay. In this case, Ba/F3 cells (Palacios et al., Nature, 309:126, 1984) transfected with the gene for human CCR6 under control of the CMV promotor were used. To begin such an assay, hCCR6-transfected Ba/F3 cells are first grown for 24 hr in medium supplemented with sodium butyrate, which increases CCR6 transcription via the CMV promotor. The prepared Ba/F3 cells, are collected by centrifugation at 400×g at room temperature, then suspended at 4 million/ml in human serum. The compound being tested is serially diluted from a maximum final concentration of 1 μM (or an equivalent volume of its solvent (DMSO)) and is then added to the cell/serum mixture. Separately, recombinant human CCL20 (MIP-3α/LARC) at its EC50 concentration (10 nM) is placed in the lower wells of the ChemoTX® plate. The 5-μm (pore size) polycarbonate membrane is placed onto the plate, and 20 μL of the cell/compound mixture is transferred onto each well of the membrane. The plates are incubated at 37° C. for 45 minutes, after which the polycarbonate membranes are removed and 5 μl of the DNA-intercalating dye CyQUANT (Invitrogen, Carlsbad, CA) is added to the lower wells. The amount of fluorescence, corresponding to the number of migrated cells, is measured using a Spectrafluor Plus plate reader (TECAN, San Jose, CA).
In the case of `N[C@H]1C[C@H](Nc2cc(-c3ccc(S(=O)(=O)N4CC[C@@H](Nc5ccc(C(F)(F)F)cn5)[C@@H](O)C4)cc3)ccn2)C1` [Compound 128], the IC50 is less than 1 nM. Next, `N[C@H]1C[C@@H](Nc2cc(-c3ccc(S(=O)(=O)N4CC[C@@H](Nc5ccc(C(F)(F)F)cn5)[C@@H](O)C4)cc3)ccn2)C1` [Compound 129]: less than 1 nM. Regarding `CN(c1cc(-c2ccc(S(=O)(=O)N3CC[C@@H](Nc4ccc(C(F)(F)F)cn4)[C@@H](O)C3)cc2)ccn1)C1CCC1` [Compound 130], the IC50 was less than 1 nM. Take `O=S(=O)(c1ccc(-c2ccnc(N3CCC(O)CC3)c2)cc1)N1CC[C@@H](Nc2ccc(C(F)(F)F)cn2)[C@@H](O)C1` [Compound 131]: the IC50 is less than 1 nM. The value for `CC(C)(O)C1CN(c2cc(-c3ccc(S(=O)(=O)N4CC[C@@H](Nc5ccc(C(F)(F)F)cn5)[C@@H](O)C4)cc3)ccn2)C1` [Compound 132] was less than 1 nM; that for `O=S(=O)(c1ccc(-c2ccnc(N3CC[C@H](O)C3)c2)cc1)N1CC[C@@H](Nc2ccc(C(F)(F)F)cn2)[C@@H](O)C1` [Compound 133] was less than 1 nM; that for `O=S(=O)(c1ccc(-c2ccnc(N3CC[C@@H](O)C3)c2)cc1)N1CC[C@@H](Nc2ccc(C(F)(F)F)cn2)[C@@H](O)C1` [Compound 134] was less than 1 nM. Consider `O=S(=O)(c1ccc(-c2ccnc(N3CC4(COC4)C3)c2)cc1)N1CC[C@@H](Nc2ccc(C(F)(F)F)cn2)[C@@H](O)C1` [Compound 135], for which the IC50 is less than 1 nM. Consider `COC1CN(c2cc(-c3ccc(S(=O)(=O)N4CC[C@@H](Nc5ccc(C(F)(F)F)cn5)[C@@H](O)C4)cc3)ccn2)C1` [Compound 136], for which the IC50 was 1 to 10 nM. Next, `O=S(=O)(c1ccc(-c2ccnc(N3CC(O)C3)c2)cc1)N1CC[C@@H](Nc2ccc(C(F)(F)F)cn2)[C@@H](O)C1` [Compound 137]: less than 1 nM; `CN(C)CCN(C)c1cc(-c2ccc(S(=O)(=O)N3CC[C@@H](Nc4ccc(C(F)(F)F)cn4)[C@@H](O)C3)cc2)ccn1` [Compound 138]: less than 1 nM; `O=S(=O)(c1ccc(-c2ccnc(N3CCC3)c2)cc1)N1CC[C@@H](Nc2ccc(C(F)(F)F)cn2)[C@@H](O)C1` [Compound 139]: less than 1 nM. With `O=S(=O)(c1ccc(-c2ccnc(NC3CCC3)c2)cc1)N1CC[C@@H](Nc2ccc(C(F)(F)F)cn2)[C@@H](O)C1` [Compound 140], the IC50 was less than 1 nM. In the case of `O=S(=O)(c1ccc(-c2ccnc(N3CC4(CNC4)C3)c2)cc1)N1CC[C@@H](Nc2ccc(C(F)(F)F)cn2)[C@@H](O)C1` [Compound 141], the IC50 was in the range of 1 to 10 nM. Turning to `CN1CC2(C1)CN(c1cc(-c3ccc(S(=O)(=O)N4CC[C@@H](Nc5ccc(C(F)(F)F)cn5)[C@@H](O)C4)cc3)ccn1)C2` [Compound 142], the IC50 fell in the range of 1 to 10 nM.

Turning to `CN(C)C1CCN(c2cc(-c3ccc(S(=O)(=O)N4CC[C@@H](Nc5ccc(C(F)(F)F)cn5)[C@@H](O)C4)cc3)ccn2)CC1` [Compound 143], the IC50 fell in the range of 1 to 10 nM. Next, `O=S(=O)(c1ccc(-c2ccnc(N3CCCCC3)c2)cc1)N1CC[C@@H](Nc2ccc(C(F)(F)F)cn2)[C@@H](O)C1` [Compound 145]: less than 1 nM. Take `O=S(=O)(c1ccc(-c2ccnc(N3CCOCC3)c2)cc1)N1CC[C@@H](Nc2ccc(C(F)(F)F)cn2)[C@@H](O)C1` [Compound 146]: the IC50 was less than 1 nM. Next, `Cc1cc(C(N)=O)ncc1-c1ccc(S(=O)(=O)N2CC[C@@H](Nc3ccc(C(F)(F)F)cn3)[C@@H](O)C2)cc1` [Compound 147]: less than 1 nM; `Cc1c(-c2ccc(S(=O)(=O)N3CC[C@@H](Nc4ccc(C(F)(F)F)cn4)[C@@H](O)C3)cc2)cnc(N)c1C` [Compound 148]: less than 1 nM.

Turning to `N#Cc1cnccc1-c1ccc(S(=O)(=O)N2CC[C@@H](Nc3ccc(C(F)(F)F)cn3)[C@@H](O)C2)cc1` [Compound 149], the IC50 lay in the range of 1 to 10 nM. Regarding `COc1nccc(-c2ccc(S(=O)(=O)N3CC[C@@H](Nc4ccc(C(F)(F)F)cn4)[C@@H](O)C3)cc2)c1OC` [Compound 150], the IC50 is less than 1 nM. Next, `COc1cnccc1-c1ccc(S(=O)(=O)N2CC[C@@H](Nc3ccc(C(F)(F)F)cn3)[C@@H](O)C2)cc1` [Compound 151]: 1 to 10 nM.

Consider `Cc1cncc(-c2ccc(S(=O)(=O)N3CC[C@@H](Nc4ccc(C(F)(F)F)cn4)[C@@H](O)C3)cc2)c1` [Compound 152], for which the IC50 is less than 1 nM. The value for `O=S(=O)(c1ccc(-c2ccncc2CO)cc1)N1CC[C@@H](Nc2ccc(C(F)(F)F)cn2)[C@@H](O)C1` [Compound 153] was 1 to 10 nM; that for `COc1ccc(-c2ccc(S(=O)(=O)N3CC[C@@H](Nc4ccc(C(F)(F)F)cn4)[C@@H](O)C3)cc2)cn1` [Compound 154] was 1 to 10 nM; that for `COc1nccc(-c2ccc(S(=O)(=O)N3CC[C@@H](Nc4ccc(C(F)(F)F)cn4)[C@@H](O)C3)cc2)c1C` [Compound 155] was less than 1 nM. Next, `COc1cnc(C)cc1-c1ccc(S(=O)(=O)N2CC[C@@H](Nc3ccc(C(F)(F)F)cn3)[C@@H](O)C2)cc1` [Compound 156]: less than 1 nM; `COc1c(-c2ccc(S(=O)(=O)N3CC[C@@H](Nc4ccc(C(F)(F)F)cn4)[C@@H](O)C3)cc2)ccnc1C` [Compound 157]: less than 1 nM. The value for `O=S(=O)(c1ccc(-c2ccnc(N3CCNCC3)c2)cc1)N1CC[C@@H](Nc2ccc(C(F)(F)F)cn2)[C@@H](O)C1` [Compound 158] was 1 to 10 nM. For `O=C1Nc2ncc(-c3ccc(S(=O)(=O)N4CC[C@@H](Nc5ccc(C(F)(F)F)cn5)[C@@H](O)C4)cc3)cc2C12CCC2` [Compound 159], the IC50 was less than 1 nM. As for `Nc1ccc(-c2ccc(S(=O)(=O)N3CC[C@@H](Nc4ccc(C(F)(F)F)cn4)[C@@H](O)C3)cc2)cn1` [Compound 160], the IC50 was less than 1 nM.

For the compound `O=S(=O)(c1ccc(-c2ccncc2)cc1)N1CC[C@@H](Nc2ccc(C(F)(F)F)cn2)[C@@H](O)C1` [Compound 161], the IC50 is less than 1 nM. Consider `O=S(=O)(c1ccc(-c2cccnc2)cc1)N1CC[C@@H](Nc2ccc(C(F)(F)F)cn2)[C@@H](O)C1` [Compound 162], for which the IC50 was less than 1 nM. Next, `Cc1cc(-c2ccc(S(=O)(=O)N3CC[C@@H](Nc4ccc(C(F)(F)F)cn4)[C@@H](O)C3)cc2)ccn1` [Compound 163]: less than 1 nM; `Cc1cnccc1-c1ccc(S(=O)(=O)N2CC[C@@H](Nc3ccc(C(F)(F)F)cn3)[C@@H](O)C2)cc1` [Compound 164]: less than 1 nM.

For `COc1cc(-c2ccc(S(=O)(=O)N3CC[C@@H](Nc4ccc(C(F)(F)F)cn4)[C@@H](O)C3)cc2)ccn1` [Compound 165], the IC50 was 1 to 10 nM.

For `Cc1c(-c2ccc(S(=O)(=O)N3CC[C@@H](Nc4ccc(C(F)(F)F)cn4)[C@@H](O)C3)cc2)ccnc1N` [Compound 166], the IC50 is less than 1 nM. Next, `O=C1C[C@H](Nc2ccc(-c3ccc(S(=O)(=O)N4CC[C@@H](Nc5ccc(C(F)(F)F)cn5)[C@@H](O)C4)cc3)cn2)CN1` [Compound 167]: less than 1 nM; `O=C1C[C@@H](Nc2ccc(-c3ccc(S(=O)(=O)N4CC[C@@H](Nc5ccc(C(F)(F)F)cn5)[C@@H](O)C4)cc3)cn2)CN1` [Compound 168]: less than 1 nM. As to `O=C1NCC[C@H]1Nc1ccc(-c2ccc(S(=O)(=O)N3CC[C@@H](Nc4ccc(C(F)(F)F)cn4)[C@@H](O)C3)cc2)cn1` [Compound 169], the IC50 is less than 1 nM. Next, `O=C1NCC[C@@H]1Nc1ccc(-c2ccc(S(=O)(=O)N3CC[C@@H](Nc4ccc(C(F)(F)F)cn4)[C@@H](O)C3)cc2)cn1` [Compound 170]: less than 1 nM; `O=S(=O)(c1ccc(-c2ccc(N3CCC(O)CC3)nc2)cc1)N1CC[C@@H](Nc2ccc(C(F)(F)F)cn2)[C@@H](O)C1` [Compound 171]: less than 1 nM; `O=S(=O)(c1ccc(-c2ccc(N3CCCC3)nc2)cc1)N1CC[C@@H](Nc2ccc(C(F)(F)F)cn2)[C@@H](O)C1` [Compound 172]: less than 1 nM. Next, `O=C1CN(c2cc(-c3ccc(S(=O)(=O)N4CC[C@@H](Nc5ccc(C(F)(F)F)cn5)[C@@H](O)C4)cc3)ccn2)CCN1` [Compound 173]: less than 1 nM; `O=S(=O)(c1ccc(-c2ccc(N3CC(O)C3)nc2)cc1)N1CC[C@@H](Nc2ccc(C(F)(F)F)cn2)[C@@H](O)C1` [Compound 174]: less than 1 nM.
